Measurements: patent US20220274947A1, “NOVEL HETEROARYL-TRIAZOLE COMPOUNDS AS PESTICIDES” (Bayer Aktiengesellschaft, priority 2019, published 2022)

Key:
Format in all cases: in vivo
[1] = system: Spodoptera frugiperda; assay: Spodoptera frugiperda spray test; settings: in Zea mays, 168 h, read-out: activity (mortality)
Experimental: Spodoptera Fruaiperda—Spray Test
Solvent: 78.0 parts by weight acetone • 1.5 parts by weight dimethylformamide Emulsifier: alkylarylpolyglycol ether
To produce a suitable preparation of active compound, 1 part by weight of active compound is mixed with the stated amount of solvents and is diluted with water, containing an emulsifier concentration of 1000 ppm, to the desired concentration. Further test concentrations are prepared by dilution with emulsifier containing water.
Maize (Zea mays) leaf sections are sprayed with a preparation of the active ingredient of the desired concentration. Once dry, the leaf sections are infested with fall armyworm larvae (Spodoptera frugiperda).
After 7 days mortality in % is determined. 100% means all caterpillars have been killed and 0% means none of the caterpillars have been killed.

[2] = system: Diabrotica balteata; assay: Diabrotica balteata spray test; settings: 168 h, wheat seeds, larvae, after 7 days, read-out: activity (efficacy: 100% means all seedlings have grown up like in the untreated, uninfected control); for pest or weed control at 32 µg/disc, 100 g/ha: application rate 100 g/ha (=32 μg/well); for pest or weed control at 160 µg/disc, 500 g/ha: application rate 500 g/ha (=160 μg/well)
Experimental: Diabrotica balteata—Spray Test Solvent: 78.0 parts by weight of acetone • • 1.5 parts by weight of dimethylformamide Emulsifier: alkylarylpolyglycol ether
To produce a suitable preparation of active compound, 1 part by weight of active compound is mixed with the stated amount of solvent, and the concentrate is diluted with water, containing an emulsifier concentration of 1000 ppm, to the desired concentration. Further test concentrations are prepared by dilution with emulsifier containing water.
Soaked wheat seeds (Triticum aestivum) are placed in a multiple well plate filled with agar and some water and are incubated for 1 day to germinate (5 seeds per well). The germinated wheat seeds are sprayed with a test solution containing the desired concentration of the active ingredient. Afterwards each unit is infected with 10-20 larvae of the banded cucumber beetle (Diabrotica balteata).
After 7 days efficacy in % is determined. 100% means all the seedlings have grown up like in the untreated, uninfected control; 0% means none of the seedlings have grown.

[3] = system: Rhipicephalus microplus; assay: Rhipicephalus (Boophilus) microplus in-vitro contact test, larval cattle tick, strain Parkhurst (BOOPMI Cont); settings: application rate 5 μg/cm^2 (=500 g/ha), tick larvae, after 48 hours, read-out: activity (efficacy: 100% means all larvae are dead or moribund)
Experimental: Rhipicephalus (Boophilus) Microplus—In-Vitro Contact Tests Larval Cattle Tick (Strain Parkhurst, Resistant Against Synthetic Pyrethroids) (BOOPMI Cont)
9 mg compound is solved in 1 mL acetone and diluted with acetone to the desired concentration. 250 μL of the test solution is filled in 25 mL glass test tubes and homogeneously distributed on the inner walls by rotation and tilting on a shaking device (2 h at 30 rpm). With a compound concentration of 900 ppm, an inner surface of 44.7 cm^2 and a homogeneous distribution, a dose of 5 μg/cm^2 is achieved.
After the solvent has evaporated, each test tube is filled with 20-50 cattle tick larvae (Rhipicephalus microplus), closed with a perforated lid and incubated in a horizontal position at 85% relative humidity and 27° C. in an incubator. After 48 hours efficacy is determined. The larvae are patted on the ground of the tubes and negative geotactic behavior is recorded.
An efficacy of 100% means all larvae are dead or moribund; 0% means no larvae are dead or moribund.

[4] = system: Rhipicephalus microplus; assay: Rhipicephalus (Boophilus) microplus injection test (BOOPMI Inj); settings: 168 h, injection into adult engorged female ticks, egg deposition after 7 days, read-out: activity (efficacy: 100% means all eggs are infertile); for pest or weed control at 0.004 mg: application rate 4 μg/tick; for pest or weed control at 0.02 mg: application rate 20 μg/tick
Experimental: Rhipicephalus (Boophilus) Microplus—Injection Test (BOOPMI Inj)
Solvent: dimethyl sulfoxide
To produce a suitable preparation of active compound, 10 mg of active compound are dissolved in 0.5 mL solvent, and the concentrate is diluted with solvent to the desired concentration.
Five adult engorged female ticks (Rhipicephalus microplus) are injected with 1 μL compound solution into the abdomen. The ticks are transferred into replica plates and incubated in a climate chamber.
After 7 days egg deposition of fertile eggs is monitored. Eggs where fertility is not visible are stored in a climate chamber till hatching after about 42 days. An efficacy of 100% means all eggs are infertile; 0% means all eggs are fertile.

Row | SMILES | mortality at 100 g/ha [1] [%] | pest or weed control at 32 µg/disc, 100 g/ha [2] [%] | pest or weed control at 5 µg/cm2 [3] [%] | pest or weed control at 0.004 mg [4] [%] | pest or weed control at 0.02 mg [4] [%] | mortality at 500 g/ha [1] [%] | pest or weed control at 160 µg/disc, 500 g/ha [2] [%]
1 | CC(NC(=O)c1cc(Cl)cc(OC(F)(F)F)c1)c1nc(Cl)nn1-c1ccc(C#N)cn1 (stereo not shown) [I-60] | 83 | 100 | 100 | – | – | – | –
2 | CC(NC(=O)c1cc(Cl)cc(Cl)c1)c1nc(Cl)nn1-c1ccc(C#N)cn1 (stereo not shown) [I-58] | 83 | – | 100 | – | – | – | –
3 | CC(NC(=O)c1cncc(C(F)(F)F)c1)c1nc(Cl)nn1-c1ccc(C#N)cn1 (stereo not shown) [I-59] | 100 | – | 100 | 80 | – | – | –
4 | CC(NC(=O)c1cc(Cl)cc(C(F)(F)F)c1)c1nc(Cl)nn1-c1ccc(C#N)cn1 (stereo not shown) [I-57] | 100 | 100 | 100 | – | – | – | –
5 | Cc1nc([C@H](C)NC(=O)c2cc(Br)cc(C(F)(F)F)n2)n(-c2ccc(C#N)cn2)n1 [II-55] | – | – | 100 | 100 | 100 | – | –
6 | CC(C)Oc1nc([C@H](C)NC(=O)c2cc(Cl)cc(C(F)(F)F)c2)n(-c2ccc(C#N)cn2)n1 [I-16] | – | – | 100 | 100 | 100 | 100 | 100
7 | CC(NC(=O)c1cc(Cl)nc(C(F)(F)F)c1)c1nc(Cl)nn1-c1ccc(C#N)cn1 (stereo not shown) [I-52] | 100 | 100 | 100 | – | – | – | –
8 | C[C@H](NC(=O)c1cc(Cl)cc(SC(F)(F)F)c1)c1nc(C2CC2)nn1-c1ccc(C#N)cn1 [I-45] | 100 | 100 | 100 | 100 | – | – | –
9 | CC(NC(=O)c1cc(Br)cc(Br)c1)c1nc(Cl)nn1-c1ccc(C#N)cn1 (stereo not shown) [I-54] | 100 | – | 100 | – | – | – | –
10 | CC(NC(=O)c1cc(Br)cc(OC(F)(F)F)c1)c1nc(Br)nn1-c1ccc(C#N)cn1 (stereo not shown) [I-56] | 100 | 100 | 100 | – | – | – | –
11 | CC(C)Oc1nc([C@H](C)NC(=O)c2cc(Cl)cc(Cl)c2)n(-c2ccc(C#N)cn2)n1 [I-18] | – | – | 90 | – | 100 | 83 | 100
12 | C[C@H](NC(=O)c1cc(Br)cc(C(F)(F)F)n1)c1ncnn1-c1ccc(C#N)cn1 [II-58] | – | – | – | – | 0 | – | –
13 | C[C@H](NC(=O)c1cc(Br)cc(Br)c1)c1ncnn1-c1ccc(C#N)cn1 [II- 13] | – | – | – | – | – | – | 100
14 | CC(NC(=O)c1cc(Br)cc(Br)c1)c1nc(Br)nn1-c1ccc(C#N)cn1 (stereo not shown) [I-53] | 100 | 100 | 100 | – | – | – | –
15 | CC(NC(=O)c1cc(Br)cc(OC(F)(F)F)c1)c1nc(Cl)nn1-c1ccc(C#N)cn1 (stereo not shown) [I-55] | 100 | 100 | 80 | – | – | – | –
16 | CC(C)Oc1nc([C@H](C)NC(=O)c2cc(C(F)(F)F)cc(C(F)(F)F)c2)n(-c2ccc(C#N)cn2)n1 [I-17] | 100 | 100 | 100 | 100 | 100 | 100 | 100
17 | CC(NC(=O)c1cc(Cl)cc(C(F)(F)F)c1)c1nc(Br)nn1-c1ccc(C#N)cn1 (stereo not shown) [I-49] | 100 | 100 | 100 | – | – | – | –
18 | Cc1nc([C@H](C)NC(=O)c2ccc(Cl)cn2)n(-c2ccc(C#N)cn2)n1 [II-56] | – | – | 80 | 80 | 100 | – | –
19 | C[C@H](NC(=O)c1cc(Cl)cc(C(F)(F)C(F)(F)F)c1)c1ncnn1-c1nccs1 [II-66] | – | 100 | 100 | 100 | 100 | 100 | 100
20 | C[C@H](NC(=O)c1cc(Cl)cc(OC(F)(F)F)c1)c1ncnn1-c1cc(NC(=O)c2ccc(F)cc2)ccn1 [II- 20] | – | – | – | – | – | 100 | –
21 | CC(NC(=O)c1cc(C(F)(F)F)cc(C(F)(F)F)c1)c1nc(Cl)nn1-c1ccc(C#N)cn1 (racemic) [I-39, 3,5-di(trifluoromethyl)-N-{1-[3-chloro-1-(3-cyano-pyridin-6-yl)-1H-1,2,4-triazol-5-yl]ethyl}-benzamide] | 100 | 100 | 100 | 100 | 100 | – | –
22 | CC(C)c1nc([C@H](C)NC(=O)c2cccc(C(F)(F)F)n2)n(-c2ccc(C#N)cn2)n1 [I-22] | – | 100 | – | 80 | 100 | – | –
23 | COc1nc([C@H](C)NC(=O)c2cc(F)cc(C#N)c2)n(-c2ccc(C#N)cn2)n1 [I-62] | – | 100 | 90 | 100 | – | – | –
24 | C[C@H](NC(=O)c1cc(Cl)cc(C(F)(F)C(F)(F)F)c1)c1ncnn1-c1ncc(Br)s1 [II-67] | – | – | 100 | 100 | 100 | 100 | 100
